Measurements as given in patent US8901314B2, “Substituted pyrazoles as N-type calcium channel blockers” (Janssen Pharmaceutica NV, priority 2012, dated 2014).

Legend:
[1] = tested on: Cav2.2 (N-type calcium channel; α1B, α2δ and β3 subunits stably expressed in HEK293 cells); assay: Automated electrophysiology assay (QPatch-HT patch clamp); assay type: cell-based; conditions: 0.1 μM; for QPatch % Inhibition, High Freq: high frequency stimulation (15th pulse of 5 Hz train); for QPatch % Inhibition, Low Freq: low frequency stimulation (1st pulse of train)
In short: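 Whole-cell automated patch clamp of HEK293 cells stably expressing α1B, α2δ-1 and β3, with 10 mM Ba²⁺/TEA external solution and CsCl internal solution. From −80 mV, trains of 15 pulses to +20 mV at 5 Hz every 30 s. Pulse 1 and pulse 15 currents normalized to the no-compound control period, with CdCl2 used to zero the current.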

[2] = biological target: α1B (Cav2.2), β3 and α2δ subunits of the N-type calcium channel (stable HEK cell line) (Rattus norvegicus, UniProt Q02294); assay: Calcium-dye indicator assay (FDSS, KCl depolarization); assay type: cell-based; conditions: calcium mobilization response to 50 mM KCl; six-point concentration-response
In short: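 HEK cells stably co-expressing α1B, β3 and α2δ subunits, loaded with calcium dye, exposed to compound for 5 min before 50 mM KCl depolarization, 3 min further read on FDSS. Maximal fluorescence normalized to KCl maximum and buffer minimum; IC50 by sigmoidal nonlinear regression.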

| Structure (SMILES) | IC50 [2] [µM] | QPatch % Inhibition, High Freq [1] [%] | QPatch % Inhibition, Low Freq [1] [%] |
| --- | --- | --- | --- |
| COc1ccccc1-n1nc(C2CC(C)(C)OC(C)(C)C2)c(Br)c1-c1ccc(Cl)cc1 [Compound 70, 4-Bromo-5-(4-chlorophenyl)-1-(2-methoxyphenyl)-3-(2,2,6,6-tetramethyltetrahydro-2H-pyran-4-yl)-1H-pyrazole] | 0.024 | 25 | 24 |
| COc1ccccc1-n1nc(C2CC(C)(C)OC(C)(C)C2)cc1-c1ccc(OCCN2CCOCC2)cc1 [Compound 72, 4-(2-{4-[1-(2-Methoxyphenyl)-3-(2,2,6,6-tetramethyltetrahydro-2H-pyran-4-yl)-1H-pyrazol-5-yl]phenoxy}ethyl)morpholine] | 0.038 | 11 | 4 |
| CCN(CC)c1ccccc1-n1nc(C2CC(C)(C)OC(C)(C)C2)cc1-c1ccc(Cl)cc1 [Compound 73, 2-[5-(4-Chlorophenyl)-3-(2,2,6,6-tetramethyltetrahydro-2H-pyran-4-yl)-1H-pyrazol-1-yl]-N,N-diethylaniline] | 0.05 | 1 | −18 |
| COc1ccc(-n2nc(C3CCOC(C)(C)C3)cc2-c2ccc(Cl)cc2)c(C)c1 (stereo not drawn) [Compound 75, 5-(4-Chlorophenyl)-3-(2,2-dimethyltetrahydro-2H-pyran-4-yl)-1-(4-methoxy-2-methylphenyl)-1H-pyrazole] | 0.08 | 67 | 45 |
| COc1ccccc1-n1nc(C2=CC(C)(C)OC(C)(C)C2)cc1-c1ccc(Cl)cc1 [Compound 95, 5-(4-Chlorophenyl)-1-(2-methoxyphenyl)-3-(2,2,6,6-tetramethyl-3,6-dihydro-2H-pyran-4-yl)-1H-pyrazole] | 0.0034 | 26 | 14 |

Further lines, with some results ahead:

| IC50 [2] [µM] | Structure (SMILES) | QPatch % Inhibition, High Freq [1] [%] | QPatch % Inhibition, Low Freq [1] [%] |
| --- | --- | --- | --- |
| 0.02 | CC1(C)CC(c2cc(-c3ccc(Cl)cc3)n(-c3ccccc3N)n2)CC(C)(C)O1 [Compound 68, 2-[5-(4-Chlorophenyl)-3-(2,2,6,6-tetramethyltetrahydro-2H-pyran-4-yl)-1H-pyrazol-1-yl]aniline] | 14 | −9 |
| 0.0051 | COc1ccccc1-n1nc(C2CC(C)(C)OC2(C)C)cc1-c1ccc(Cl)cc1 (stereo not drawn) [Compound 98, 5-(4-Chlorophenyl)-1-(2-methoxyphenyl)-3-(2,2,5,5-tetramethyltetrahydrofuran-3-yl)-1H-pyrazole] | 61 | 44.5 |
